# A melting point compilation (Tetko et al.; mined from patent text by program, amines drawn as free bases though some values may be those of a salt)
row,melting point,SMILES
1,157 to 161 °C,C[C@@H]1CCCN1CCCOc1ccc(-c2cc(-c3ccccn3)c(=O)[nH]n2)cc1
2,69 °C,N#CCCC(=O)c1ccccc1
3,122 to 126 °C,CC1(C)C(=O)C(C)(C)c2cc(CCN3CCN(c4nsc5ccccc45)CC3)ccc21
4,122 °C,CC(C)N(Cc1cccs1)S(=O)(=O)N[C@@H](Cc1ccc(NC(=O)c2cc(Cl)cc(Cl)c2)cc1)C(=O)O
5,100 to 104 °C,CC(O)c1ccc(-c2ccc(N)cc2)o1 (stereo unspecified)
6,168 to 170 °C,COCc1c2c(c(COC)n1-c1ccccc1)C(C)(C(N)=O)CC2(C)C (stereo unspecified)
7,197 to 199 °C,Cc1cc2[nH]c(CC(C)(C)N3C(=O)c4ccccc4C3=O)nn2n1
8,137 °C,NC1N=C(c2ccccc2)C=CS1 (stereo unspecified)
9,52 to 53 °C,CCCCn1ccc2cc(-c3ccc(C(F)(F)F)cc3)ccc21
10,162 to 164 °C,CC(Cc1ccccc1)(C(=NC#N)NCCc1ccccc1)c1ccccn1 (stereo unspecified)
11,200 to 201 °C,NC(=O)C1CCCc2c1c1cc(OCCCP(=O)(O)O)ccc1n2Cc1ccccc1 (stereo unspecified)
12,> 210 °C,Nc1nccc(-c2c[nH]c3nccc(-c4ccccc4)c23)n1
13,232 to 233 °C,C=C(Nc1nc(-c2ccccc2)c(-c2nc3ccccc3c(=O)n2-c2ccc(C(C)=O)cc2)s1)c1ccco1
14,215 to 217 °C,CCCCc1nc(CO)c(C(=O)O)n1Cc1ccc(-c2ccccc2-c2nnn[nH]2)cc1
15,198 to 200 °C,CC(C)n1nc(-c2nc(O)cnc2-c2ccccc2)ccc1=O
16,> 295 °C,CCOC(=O)C(=O)c1c[nH]c2c1ccc1c3ccccc3[nH]c12
17,244 °C,CCOC(=O)C1=C(C)Nc2nc(N)nc(N)c2C1c1ccc(Cl)c(Cl)c1 (stereo unspecified)
18,137 to 138 °C,CCCOc1cc(-c2ccc3cc4c(cc3c2)C(C)(C)CCC4(C)C)ccc1C(=O)O
19,> 250 °C,CC(C)(C)NC(=O)COc1cc2c(cc1C#Cc1ccccc1)NC(=O)CC(c1cccc(C#N)c1)=N2
20,98 to 100 °C,COc1ccc(S(=O)(=O)c2ncoc2C(C)C)cc1
21,140 to 142 °C,CS(=O)(=O)c1ccc(-c2cc(Cl)ccc2OCC(=O)O)cc1Cl
22,> 300 °C,c1ccc(-c2ccc3c(c2)sc2c4ccc(-c5ccccc5)cc4sc32)cc1
23,60 to 70 °C,Nc1cccc(-c2ccc(CCNCCCCCc3ccccc3)cc2)n1
24,208 to 210 °C,Nc1ccc(-c2c(Cc3ccccc3)sc3ncnc(N)c23)cc1

row,melting point,SMILES
1,212 to 214 °C,COc1ccc(Cc2n[nH]c(=O)c3ccccc23)cc1N
2,> 300 °C,Cc1ccc2nc3[nH]c(=O)[nH]c3cc2c1C
3,93 to 95 °C,ON=Cc1cc(OCC(F)(F)F)ccc1OCc1ccccc1
4,105 to 108 °C,Cc1nnc(N2N=C(c3ccc(Cl)cc3)c3cc4c(cc3C[C@H]2C)OCO4)s1
5,172 to 174 °C,Cc1csc2nc(S(=O)(=O)Nc3ccccc3Cl)nn12
6,102 to 110 °C,CN1C(=O)C(c2ccc(OC(F)(F)F)c(F)c2)(c2ccc(F)c(-c3cncnc3)c2)N=C1N (stereo unspecified)
7,210 to 211 °C,CCC(=O)N(C(=O)CC)c1cc(-c2c(-c3cccc(C)c3)nc3cccnn23)ccn1
8,184 to 185 °C,O=c1c2ccccc2oc2cccnc12
9,73 to 75 °C,CCOC(=O)C1=C(C)NC(CSCCc2ccccc2)=C(C(=O)OCC)C1c1cccc([N+](=O)[O-])c1 (stereo unspecified)
10,160 to 162 °C,Fc1cc(-c2ccc3nnn(Cc4ccc5ncccc5c4)c3n2)ccc1OCC1CC1
11,131 to 132 °C,COCC(C)Oc1cc(Oc2ccc(S(C)(=O)=O)nc2)cc2cc(C3=NCC(CC(N)=O)S3)[nH]c12 (stereo unspecified)
12,263 to 264 °C,O=C(C=Cc1ccccc1)NNC(=O)c1ccc(O)cc1
13,86 to 88 °C,COC(=O)C1=Cc2cc(-c3ccc(OCCOC(C)C)cc3)ccc2NCC1
14,89 to 90 °C,COc1cc(CON=C(CCC(=O)O)c2ccccc2)cc(OC)c1OCc1nc(-c2ccccc2)oc1C
15,139 to 140 °C,O=c1c2ccccc2sc2c(OCc3ccccc3)ccc(Cl)c12
16,184 to 186 °C,c1ccc(-c2nn3c(c2-c2ccc4nsnc4c2)CCC3)nc1
17,216 °C,CCCC1=C(C(=O)OCC)C(c2ccccc2S(C)=O)c2c[nH]nc2N1 (stereo unspecified)
18,205 °C,CC(C)CNS(=O)(=O)c1cccc(NC(=O)c2cnn3c(C(F)(F)F)cc(-c4ccc(C(F)(F)F)cc4)nc23)c1
19,76.5 °C,FC(F)(F)c1cccc(C(=CC2=NCCN2)c2ccc3ccccc3n2)c1
20,158 to 159 °C,COc1ccc(C(=O)c2ccc(Cl)nc2)cc1OC
21,159 to 162 °C,Cc1ccccc1-n1c(=O)nc(N(C)C)n(C)c1=O
22,197 °C,O=c1c2ccccc2oc2cc(OCC3CO3)cc(O)c12 (stereo unspecified)
23,107 to 109 °C,Cc1cn(C(C)(C(=O)N(C)C)c2ccccc2)nc1-c1ccccc1 (stereo unspecified)

# Continued, compound first:
row,SMILES,melting point
1,"C=CCN1CCC(O)(c2cc(F)cc(F)c2)C1 (single isomer, unassigned; (-))",102 to 103 °C
2,CS(=O)(=O)Nc1ccc(OC(=O)c2ccc(CCBr)cc2)cc1,161 to 162 °C
3,c1ccc(OCC2CCN(CCCOc3cccc4[nH]ccc34)CC2)cc1,118 to 119 °C
4,Cc1cc(N)cc(C)c1O,135 to 137 °C
5,CC(=O)Nc1ccc2c(c1)N1CCCN=C1S2,178 °C
6,CCNC(=O)Nc1ccc(C#Cc2ccc(N3CC4CCC(C3)N4C)nn2)cc1,269 °C
7,C=CCNc1cc(F)ccc1C(=O)O,136 to 139 °C
8,Cn1ccnc1Sc1c(N)cccc1Cl,123 to 124 °C
9,O=C(NCCN1CCOCC1)c1ccc(Cl)cc1,120 to 121 °C
10,COc1ccc2c(c1)CCC1C2CCC2(CC(C)C)C(O)CCC12 (stereo unspecified),103 to 104 °C
11,CC(C)(C)CC(=O)NCc1cccs1,83 to 84 °C
12,COc1ccc(F)c(F)c1C=NO,199 to 201 °C
13,COc1ccc(N2C(=O)C3=C(SCCO3)C2O)nn1 (stereo unspecified),165 °C
14,CCOC(=O)N(CC)c1cccc(-c2ccnc3ccnn23)c1,79 to 81 °C
15,COc1ccc(OC)c2c1C(C)(C)CCC2(C)C,195 °C
16,O=C(O)c1ccc(F)c2c1CC(N(CCCc1c[nH]c3ccc(F)cc13)C1CCC1)CO2 (stereo unspecified),140 °C
17,CN(NC(=O)c1ccc(C#N)cc1)C(=O)OC(C)(C)C,179 to 181 °C
18,CC(=O)OC1CCC2(C)C(CCC3C4CC5OC6(CC(C)C(C)(C)O6)C(C)(O)C5C4(C)CC(O)C32)C1 (stereo unspecified),194 to 195 °C
19,COC(=O)C1=C(C)N(C)C(C)C(C(=O)OC)=C1c1ccc(C(F)(F)F)cc1 (stereo unspecified),94 to 95 °C
20,COc1cc(C(C)C)c2c(c1)S(=O)(=O)N(COC(=O)c1sccc1Cl)C2=O,138 to 140 °C
21,Cc1c(C)c2c(c(C)c1NC(=O)c1ccc(Cl)cc1)C(c1ccc(C(C)C)cc1)C1(CCN(C)CC1)O2 (stereo unspecified),293 to 295 °C
22,CC(C)OC(=O)Nc1ccc(NC(=O)CBr)c([N+](=O)[O-])c1,195 to 197 °C
23,COP(=O)(COS(=O)(=O)c1c(C)cccc1Cl)OC,55 to 57.5 °C
24,Nc1ccc(Br)cc1C(=O)NCCCn1ccnc1,154 to 156 °C
25,CCON=C1CN(c2c(F)c(N)c3c(=O)c(C(=O)O)cn(C4CC4)c3c2F)CC12CN(C(=O)OC(C)(C)C)C2,235 to 236 °C
26,CNC(=O)NC1CCCCc2sccc21 (stereo unspecified),220 to 222 °C
27,O=S(=O)(c1ccc(Br)cc1)N1CCC(CN2CCC(c3ccncc3)CC2)CC1,163 to 164 °C

row,SMILES,melting point
1,CCCCCCCCCCCC1=NCCN1CCCCO,58 to 60 °C
2,O=C(O)c1cc2c(s1)CCC2=O,195 to 196 °C
3,CCOC(=O)c1c(=O)c2c(F)c(F)c(F)c(F)c2n2ccccc12,198 to 200 °C
4,N#CC(C=O)=C(c1ccc(F)cc1)c1ccc(F)cc1,167 to 169 °C
5,COc1ccc(N2CCOCC2)c2sc(-c3nc4ccc(N(C)CC5CCOCC5)nc4[nH]3)nc12,190 to 195 °C
6,O=C(NC[C@H]1CN(c2cc(F)c(N3CCC(n4nccn4)CC3)c(F)c2)C(=O)O1)C(F)F,254 to 255 °C
7,COc1cc2c(cc1OC)CCCC(C(=O)N1CCN(Cc3cc(OC)c(OC)c(OC)c3)CC1COC(C)=O)=C2 (stereo unspecified),135 to 139 °C
8,CCCCOCCOc1ccc(-c2ccc3c(c2)C=C(C(=O)Nc2ccc(S(=O)Cc4nccn4CCCC(=O)NC)cc2)CCN3CC(C)C)cc1 (stereo unspecified),159 to 161 °C
9,CN1C2C=C(c3c[nH]c4ccc(NC(=N)c5cccs5)cc34)CC1CC2 (stereo unspecified),93 to 95 °C
10,CCOC(=O)c1cccc(NC(=O)N2CCC(CNC[C@H](O)COc3cccc4[nH]c5ccccc5c34)CC2)c1,160 °C
11,COc1c(CBr)cccc1CBr,83.5 to 85.5 °C
12,OCC1OC(n2c(Cl)nc3c(Br)c(Br)c(Br)cc32)C(O)C1O (stereo unspecified),168 to 170 °C
13,OCc1nnc2n1-c1ccc(Cl)cc1C(c1ccccc1)=NC2,204 to 206 °C
14,COc1ccc(C)c(N2CCN(C(=O)N(C)c3cc(C)c(C)nc3OC)CC2)c1,91 to 93 °C
15,CC#Cc1cn(C2OC(CO)C(O)C2O)c(=O)[nH]c1=O (stereo unspecified),225 to 227 °C
16,O=C(O)CCOCC(I)=C(I)I,115 to 117 °C
17,COC(=O)C1(CCCN2CCN(c3ccccc3)CC2)Oc2ccccc2OCC1O (stereo unspecified),113 to 115 °C
18,O=C1CC(=O)CC2(CCOCC2)C1,162 to 164 °C
19,CN1CCCc2c(NC(=NC#N)NC(NC(=O)Cc3ccc(Cl)cc3)C(C)(C)C)cccc21 (stereo unspecified),114 to 117 °C
20,CC1(C)Oc2cnccc2C2OC21 (stereo unspecified),110 to 112 °C
21,COCC(O)COc1cccc2c1CCNC2=O (stereo unspecified),119 to 123 °C
22,COc1cc2[nH]c(N(C)Cc3cccc(C4CCN(C)CC4)c3)nc(=O)c2c(C)c1OC,156 to 158 °C
23,c1ccc(C2CCN(CCC(c3ccccc3)(c3ccccc3)c3nnn[nH]3)CC2)cc1,149 to 157 °C
24,O=C(Nc1cnc(OCCO)c(NC(=O)OCCCl)c1)OCCCl,176 to 178 °C
25,C#Cc1cccc(Nc2ncnc3cc(OCCOC)c(OCCOC(C)=O)cc23)c1,84 to 87 °C
26,CCOC(=O)C1CC(O)CN1C(=O)c1ccc2c(c1)OCO2 (stereo unspecified),98 °C
27,CN(C)CCn1c(=O)c2ccc(N)cc2c2cnc3cc4c(cc3c21)OCO4,300 to 301 °C
